In paper PMC7395068, “The evolution of strategies to minimise the risk of human drug-induced liver injury (DILI) in drug discovery and development” (Archives of Toxicology, 2020):
Read-outs that look alike come from different tables or passages of the source.

Experiments:
[1] = tested on: hLiMTs; experiment: Combined HCI (HCS) and cellular ATP 3D assay in hLiMTs
[2] = tested on: HepG2 cells; conditions: cited from earlier work
[3] = tested on: THLE-Null and THLE-3A4 cells; conditions: In vitro Assay; ref Gustafsson 2014; cited from earlier work
[4] = tested on: THLE or HepG2 cells, isolated mitochondria, BSEP; conditions: cited from earlier work
[5] = tested on: rBsep; conditions: In vitro Assay; ref Dawson 2012; cited from earlier work
[6] = read-out: Human plasma Cmax; total plasma Cmax.tot, median of 9 literature references; cited from earlier work
[7] = cited from earlier work
[8] = plasma free fraction; cited from earlier work
[9] = tested on: HepaRG spheroids; experiment: Combined HCI (HCS) and cellular ATP 3D assay in HepaRG spheroids
[10] = Plasma free fraction (fu) and unbound Cmax (Cmax,u); type: in vitro ADME, human; conditions: unbound plasma Cmax
Protocol: The prediction of DILI severity was evaluated further using the 3D combined HCI assays using plasma-free fraction. The majority of fu values were obtained from literature, when unavailable in-house prediction was utilised. Unbound plasma Cmax concentrations (Cmax,u) were derived by multiplying total plasma Cmax with the corresponding free fraction (fu) for each compound.

[11] = tested on: Upcyte human hepatocytes; conditions: In vitro Assay; ref Tolosa 2019; cited from earlier work
[12] = cited from earlier work; remark: listed apart in the source
[13] = tested on: HepG2 cells; conditions: cited from earlier work; remark: listed apart in the source
[14] = tested on: HepG2 cells, primary human hepatocytes; conditions: In vitro Assay; ref Garside 2014; cited from earlier work
[15] = Microtissue model structural based (HCI), combined HCS and ATP, MEC < 25 × Cmax.tot cut-off
[16] = Modeled in vitro assays (cytotoxicity, mitochondrial dysfunction, BSEP), ref Aleo et al. 2019

C[N+](C)(C)CC(=O)O [betaine, reference compound]
DILI prediction hLiMTs (HCS-MEC) [1, 15]: -VE
hLiMTs <25x Avg Cmax ATP ([1]; hLiMTs, ATP endpoint, cut-off <25x Avg Cmax): -ve
hLiMTs <100x Avg Cmaxu ATP ([1]; hLiMTs, ATP endpoint, cut-off <100x Avg Cmaxu): -ve
hLiMTs <25x Avg Cmax HCS ([1]; hLiMTs, HCS endpoints, cut-off <25x Avg Cmax): -ve
hLiMTs <100x Avg Cmaxu HCS ([1]; hLiMTs, HCS endpoints, cut-off <100x Avg Cmaxu): -ve
hLiMTs <25x Avg Cmax All ([1]; hLiMTs, all endpoints (ATP and HCS), cut-off <25x Avg Cmax): -ve
hLiMTs Cmax max All ([1]; hLiMTs, all endpoints, Cmax max used): -ve
hLiMTs Cmax min All ([1]; hLiMTs, all endpoints, Cmax min used): -ve
hLiMTs <10 uM All ([1]; hLiMTs, all endpoints, cut-off <10 uM): -ve
hLiMTs <100x Avg Cmaxu All ([1]; hLiMTs, all endpoints, cut-off <100x Avg Cmaxu): -ve
Structural based (HCI) ([2]; In vitro Assay, ref Tolosa 2012): -VE
DILI in vitro assay prediction, Tolosa (2012) ([2]; Structural based (HCI), HepG2, ref Tolosa et al. 2012): -VE
THLE-Null [3]: -VE
THLE-Null/3A4 [3]: -VE
Partition Hybrid HRM Score ([4]; In vitro Assay, ref Aleo 2019): -VE
Ro2 Hybrid HRM Score ([4]; In vitro Assay, ref Aleo 2019): -VE
Partition Hybrid HRM Score ≥4, Aleo (2019) [4, 16]: -VE
Partition Hybrid HRM Score ≥8, Aleo (2019) [4, 16]: -VE
Rule of Two hybrid HRM Score ≥3, Aleo (2019) [4, 16]: -VE
Rule of Two hybrid HRM Score ≥8, Aleo (2019) [4, 16]: -VE
Inhibition of rBsep cutoff<1& cmax u>.2 [5]: -VE
Inhibition of rBsep cutoff<3 [5]: -VE
Cmax [6]: 944 µM
Assigned DILI category ([7]; Chen et al. 2016 or literature alignment, ref Chen et al. 2016): 1
In vivo DILI ([7]; ref Aleo 2019): -VE
In vivo DILI ([7]; ref Dawson 2012): -VE
In vivo DILI ([7]; ref Garside 2014): -VE
In vivo DILI ([7]; ref Gustafsson 2014): -VE
In vivo DILI ([7]; ref O'Brien 2006): -VE
In vivo DILI ([7]; ref Tolosa 2012): -VE
In vivo DILI ([7]; ref Tolosa 2019): -VE
fu [8]: 0.760
HepaRG <25x Avg Cmax ATP ([9]; HepaRG, ATP endpoint, cut-off <25x Avg Cmax): -ve
HepaRG <100x Avg Cmaxu ATP ([9]; HepaRG, ATP endpoint, cut-off <100x Avg Cmaxu): -ve
HepaRG <25x Avg Cmax HCS ([9]; HepaRG, HCS endpoints, cut-off <25x Avg Cmax): -ve
HepaRG <100x Avg Cmaxu HCS ([9]; HepaRG, HCS endpoints, cut-off <100x Avg Cmaxu): -ve
HepaRG <25x Avg Cmax All ([9]; HepaRG, all endpoints (ATP and HCS), cut-off <25x Avg Cmax): -ve
HepaRG Cmax max All ([9]; HepaRG, all endpoints, Cmax max used): -ve
HepaRG Cmax min All ([9]; HepaRG, all endpoints, Cmax min used): -ve
HepaRG <10 uM All ([9]; HepaRG, all endpoints, cut-off <10 uM): -ve
HepaRG <100x Avg Cmaxu All ([9]; HepaRG, all endpoints, cut-off <100x Avg Cmaxu): -ve
DILI prediction HepaRG spheroids (HCS-MEC) [9, 15]: -VE
Human plasma Cmax,u [10]: 717.446 µM
Upcytes multi donor assay 14day data [11]: -VE
DILI severity category (Chen et al. [2016]) ([12]; LTKB DILIrank category, ref Chen et al. 2016): No
DILI severity category (Chen 2016) ([12]; human DILI classification, LTKB DILIrank, ref Chen et al. 2016): No
DILI severity category ([12]; human DILI severity, ref Chen et al.): No
DILI +VE (5-8), DILI -VE (-4) ([12]; ref Chen 2016): -VE
DILI severity category ([12]; ref Chen 2016): vNo-DILI-Concern
Structural based (HCI) ([13]; In vitro Assay, ref O'Brien 2006): +VE
DILI in vitro assay prediction, O'Brien (2006) ([13]; Structural based (HCI), HepG2, ref O'Brien et al. 2006): +VE (lowest HCI endpoint IC50 (or in the absence of dose–response < 100 µM) < 30 × total human plasma exposure levels (Cmax.tot))
Cluster 1-6 +VE Assay [14]: -VE
